Data taken from PubChem BioAssay (NCI).
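Tested at 5 concentrations; 48 h exposure; 96-well plates; endpoints linearly interpolated, else capped at highest concentration. GI50: concentration for 50% inhibition of growth. TGI: concentration producing complete growth inhibition.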

Legend:
Assay in all cases: growth of human tumour cells (NCI), 48 h
[1] = tested on: OVCAR-8 ovarian
[2] = tested on: U251 CNS
[3] = tested on: A498 renal
[4] = tested on: HCC-2998 colon
[5] = tested on: IGROV1 ovarian
[6] = tested on: SR leukemia
[7] = tested on: BT-549 breast
[8] = tested on: SF-295 CNS
[9] = tested on: HL-60(TB) leukemia
[10] = tested on: MDA-MB-435

O=C1c2cccnc2C(=O)c2c1c(C(=O)OCCc1ccccn1)c1ccccn21 showed a GI50 [1] of 0.0589 µM, a TGI [1] of 2.12 µM and a GI50 [2] of 0.0216 µM. It also gave a TGI [2] of 0.261 µM, a GI50 [3] of under 0.0378 µM and a TGI [3] of 0.824 µM. For the same molecule, the GI50 [4] was 0.12 µM, the TGI [4] was 2.08 µM and the GI50 [5] was 0.0421 µM. For the same molecule, the TGI [5] was 4.73 µM, the GI50 [6] was under 0.01 µM and the TGI [6] was over 100 µM. For the same molecule, the GI50 [7] was 0.0671 µM, the TGI [7] was 2.11 µM and the GI50 [8] was 0.342 µM. For the same molecule, the TGI [8] was 1.77 µM, the GI50 [9] was 0.783 µM and the TGI [9] was 5.93 µM. For the same molecule, the GI50 [10] was 0.0524 µM and the TGI [10] was 3.72 µM.

Oc1ccc(Cc2ccc(O)c(C3CC(c4ccc(Cl)cc4)=NN3)c2)cc1C1CC(c2ccc(Cl)cc2)=NN1 (stereo not drawn) gave a GI50 [1] of 2.87 µM, a TGI [1] of over 42.4 µM and a GI50 [2] of 2.06 µM. The TGI [2] was 33.6 µM, the GI50 [3] was 0.59 µM and the TGI [3] was over 34.3 µM. For the same molecule, the GI50 [4] was 3.71 µM, the TGI [4] was over 30.8 µM and the GI50 [5] was 3.69 µM. For the same molecule, the TGI [5] was over 72.3 µM, the GI50 [6] was 2.77 µM and the TGI [6] was over 100 µM. The GI50 [7] was 4.19 µM, the TGI [7] was 23.3 µM and the GI50 [8] was 2.39 µM. It also gave a TGI [8] of over 42.9 µM, a GI50 [9] of 2.73 µM and a TGI [9] of over 100 µM. It also gave a GI50 [10] of 3.23 µM and a TGI [10] of 20.2 µM.

For CCN(CC)CC(O)COc1c(Br)c(Br)c(Br)c2c1OC(C)(C)C2 (stereo not drawn), the GI50 [1] was 11.4 µM, the TGI [1] was 36.7 µM and the GI50 [2] was 4.48 µM. The TGI [2] was 14.8 µM, the GI50 [3] was 4.44 µM and the TGI [3] was 17.3 µM. For the same molecule, the GI50 [4] was 3.42 µM, the TGI [4] was 9.23 µM and the GI50 [5] was 1.91 µM. It also gave a TGI [5] of 5.83 µM, a GI50 [6] of 1.75 µM and a TGI [6] of 3.81 µM. The GI50 [7] was 4.5 µM, the TGI [7] was 17.6 µM and the GI50 [8] was 1.1 µM. It also gave a TGI [8] of 2.71 µM, a GI50 [9] of 1.73 µM and a TGI [9] of 3.53 µM. For the same molecule, the GI50 [10] was 2.66 µM and the TGI [10] was 7.31 µM.

For CCC(C)CC(C)C(=O)c1c(O)ccn(O)c1=O (stereo not drawn), the GI50 [1] was 0.626 µM, the TGI [1] was over 100 µM and the GI50 [2] was 2.14 µM. The TGI [2] was over 100 µM, the GI50 [4] was 6 µM and the TGI [4] was over 100 µM. It also gave a GI50 [5] of 3.18 µM, a TGI [5] of 28.1 µM and a GI50 [6] of 0.498 µM. For the same molecule, the TGI [6] was 18.3 µM, the GI50 [7] was 2.56 µM and the TGI [7] was 37.9 µM. The GI50 [8] was 5.22 µM, the TGI [8] was 49.6 µM and the GI50 [9] was 0.473 µM. It also gave a TGI [9] of 12.6 µM, a GI50 [10] of 1.87 µM and a TGI [10] of over 100 µM.

For CCCOc1ccc(/C=N/Nc2cc(C)nc3ccc(Cl)cc23)cc1, the GI50 [1] was 2.31 µM, the TGI [1] was 4.53 µM and the GI50 [2] was 2.05 µM. For the same molecule, the TGI [2] was 3.55 µM, the GI50 [3] was 1.72 µM and the TGI [3] was 3.16 µM. For the same molecule, the GI50 [4] was 2.03 µM, the TGI [4] was 3.53 µM and the GI50 [5] was 1.92 µM. The TGI [5] was 3.63 µM, the GI50 [6] was 1.17 µM and the TGI [6] was 3.75 µM. The GI50 [7] was 2.17 µM, the TGI [7] was 5.46 µM and the GI50 [8] was 1.72 µM. For the same molecule, the TGI [8] was 3.2 µM, the GI50 [9] was 1.83 µM and the TGI [9] was 3.78 µM. For the same molecule, the GI50 [10] was 1.8 µM and the TGI [10] was 3.24 µM.

Work on COc1ccc(C2CC(c3ccc4ccccc4c3)=NN2c2nc(O)c(C3=c4cc(OC)ccc4=NC3=O)s2)cc1 (stereo not drawn) yielded a GI50 [1] of 0.0646 µM, a TGI [1] of 1.26 µM and a GI50 [2] of 0.0323 µM. The TGI [2] was 0.0975 µM, the GI50 [3] was 0.124 µM and the TGI [3] was 0.3 µM. The GI50 [4] was 0.0762 µM, the TGI [4] was 0.265 µM and the GI50 [5] was 0.0641 µM. It also gave a TGI [5] of 0.388 µM, a GI50 [6] of 0.0531 µM and a TGI [6] of 2.92 µM. For the same molecule, the GI50 [7] was 0.978 µM, the TGI [7] was 17.5 µM and the GI50 [8] was 0.0608 µM. The TGI [8] was 0.165 µM, the GI50 [9] was over 57.9 µM and the TGI [9] was over 100 µM. For the same molecule, the GI50 [10] was 0.0351 µM and the TGI [10] was 0.134 µM.
